Consider 29 compounds from patent US20090131431A1, “Pyrazolo[3,4-b]pyridine compounds, and their use as a PDE4 inhibitors” (priority 2005, published 2009).

This experiment addresses T1, PDE4B (human recombinant) (Homo sapiens, UniProt Q07343).
T1 construct: made in house
The experiment is described as follows: Inhibition of PDE4B activity: SPA and/or Fluorescence Polarisation (FP) assay. It is filed as biochemical. To be noted: one reading (n=1) or average of 2 or more readings, read-out: PDE4B pIC50 (±about 0.5) (converted). The method in brief:
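Human recombinant PDE4B activity measured by SPA with [3H]cAMP at about 10 nM, 1 h at ambient temperature, enzyme set for ≤20% substrate hydrolysis, or by IMAP FP with Fl-cAMP at about 40 nM, 40 min at ambient temperature under linear conditions. Inhibition curves fitted; values reported as pIC50.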

T1 sequence (Q07343 1-564 isoform Q07343-2): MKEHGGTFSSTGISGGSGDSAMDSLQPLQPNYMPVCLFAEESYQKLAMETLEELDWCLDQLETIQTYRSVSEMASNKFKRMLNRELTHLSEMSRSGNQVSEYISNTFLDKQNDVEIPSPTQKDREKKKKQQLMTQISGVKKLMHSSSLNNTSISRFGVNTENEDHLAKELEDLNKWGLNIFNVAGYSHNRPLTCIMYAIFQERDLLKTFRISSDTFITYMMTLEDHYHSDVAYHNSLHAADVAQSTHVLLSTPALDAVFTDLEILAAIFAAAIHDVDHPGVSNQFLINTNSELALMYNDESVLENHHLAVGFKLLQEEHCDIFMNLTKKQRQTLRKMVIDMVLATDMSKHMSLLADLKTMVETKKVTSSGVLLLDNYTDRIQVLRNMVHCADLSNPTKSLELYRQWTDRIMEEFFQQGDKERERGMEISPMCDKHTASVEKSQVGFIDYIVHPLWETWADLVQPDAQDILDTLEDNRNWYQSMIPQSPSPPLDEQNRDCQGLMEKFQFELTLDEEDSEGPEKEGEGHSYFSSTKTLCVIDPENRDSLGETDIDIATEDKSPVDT

In the case of `CCc1nc2c(cnn2CC)c(NC2CCOCC2)c1CNC(=O)c1ccc(C)nc1` [Example 334, N-{[1,6-diethyl-4-(tetrahydro-2H-pyran-4-ylamino)-1H-pyrazolo[3,4-b]pyridin-5-yl]methyl}-6-methyl-3-pyridinecarboxamide], the IC50 is 126 to 1000 pM. For the compound `CCn1ncc2c(NC3CCOCC3)c(CNC(=O)c3ccccc3O)c(C)nc21` [Example 275, N-{[1-ethyl-6-methyl-4-(tetrahydro-2H-pyran-4-ylamino)-1H-pyrazolo[3,4-b]pyridin-5-yl]methyl}-2-hydroxybenzamide], the IC50 was 10 to 100 pM. `CCc1nc2c(cnn2CC)c(NC2CCOCC2)c1CNC(=O)c1ccn(C)n1` [Example 238, N-{[1,6-diethyl-4-(tetrahydro-2H-pyran-4-ylamino)-1H-pyrazolo[3,4-b]pyridin-5-yl]methyl}-1-methyl-1H-pyrazole-3-carboxamide]: the IC50 was 126 to 1000 pM. Regarding `CCc1nc2c(cnn2CC)c(NC2CCOCC2)c1CNC(=O)c1nc2ccc(Cl)cc2nc1OC` [Example 174, 6-chloro-N-{[1,6-diethyl-4-(tetrahydro-2H-pyran-4-ylamino)-1H-pyrazolo[3,4-b]pyridin-5-yl]methyl}-3-(methyloxy)-2-quinoxalinecarboxamide], the IC50 is 10 to 100 pM. The figure for `CCn1ncc2c(NC3CCOCC3)c(CNC(=O)c3ccc(F)cc3F)c(C)nc21` [Example 312, N-{[1-ethyl-6-methyl-4-(tetrahydro-2H-pyran-4-ylamino)-1H-pyrazolo[3,4-b]pyridin-5-yl]methyl}-2,4-difluorobenzamide] is 126 to 1000 pM. The result for `CCc1nc2c(cnn2CC)c(NC2CCOCC2)c1CNC(=O)c1ccc(C2CCCC2)cc1` [Example 184, 4-cyclopentyl-N-{[1,6-diethyl-4-(tetrahydro-2H-pyran-4-ylamino)-1H-pyrazolo[3,4-b]pyridin-5-yl]methyl}benzamide] reads 10 to 100 pM. Consider `CCn1ncc2c(NC3CCN(C(N)=O)CC3)c(CNC(=O)c3ccc(NC(C)=O)c4c3OCC4)c(C)nc21` [Example 305, 4-({5-[({[4-(acetylamino)-2,3-dihydro-1-benzofuran-7-yl]carbonyl}amino)methyl]-1-ethyl-6-methyl-1H-pyrazolo[3,4-b]pyridin-4-yl}amino)-1-piperidinecarboxamide], for which the IC50 is 10 to 100 pM.

Turning to `CCc1nc2c(cnn2CC)c(NC2CCOCC2)c1CNS(=O)(=O)C(C)C` [Example 173, N-{[1,6-diethyl-4-(tetrahydro-2H-pyran-4-ylamino)-1H-pyrazolo[3,4-b]pyridin-5-yl]methyl}-2-propanesulfonamide], the IC50 was 126 to 1000 pM. The figure for `CCc1nc2c(cnn2CC)c(NC2CCOCC2)c1CNC(=O)c1ccc2ccccc2c1` [Example 191, N-{[1,6-diethyl-4-(tetrahydro-2H-pyran-4-ylamino)-1H-pyrazolo[3,4-b]pyridin-5-yl]methyl}-2-naphthalenecarboxamide] is 126 to 1000 pM.

As to `CCc1nc2c(cnn2CC)c(NC2CCOCC2)c1CNC(=O)c1ccc(NC(C)=O)cc1O` [Example 251, 4-(acetylamino)-N-{[1,6-diethyl-4-(tetrahydro-2H-pyran-4-ylamino)-1H-pyrazolo[3,4-b]pyridin-5-yl]methyl}-2-hydroxybenzamide], the IC50 was 10 to 100 pM. The result for `CCc1nc2c(cnn2CC)c(NC2CCN(C(N)=O)CC2)c1CNC(=O)c1ccc(N2CCCCC2)cc1` [Example 204, 4-({1,6-diethyl-5-[({[4-(1-piperidinyl)phenyl]carbonyl}amino)methyl]-1H-pyrazolo[3,4-b]pyridin-4-yl}amino)-1-piperidinecarboxamide] reads 10 to 100 pM; that for `CCc1nc2c(cnn2CC)c(NC2CCOCC2)c1CNC(=O)c1cc(S(=O)(=O)c2ccccc2)ccc1OC` [Example 179, N-{[1,6-diethyl-4-(tetrahydro-2H-pyran-4-ylamino)-1H-pyrazolo[3,4-b]pyridin-5-yl]methyl}-2-(methyloxy)-5-(phenylsulfonyl)benzamide], 10 to 100 pM; that for `CCc1nc2c(cnn2CC)c(NC2CCOCC2)c1CNC(=O)c1ccc(C#N)nc1` [Example 325, 6-cyano-N-{[1,6-diethyl-4-(tetrahydro-2H-pyran-4-ylamino)-1H-pyrazolo[3,4-b]pyridin-5-yl]methyl}-3-pyridinecarboxamide], 126 to 1000 pM.

As for `CCc1nc2c(cnn2CC)c(NC2CCOCC2)c1CNC(=O)c1cnc(C(C)C)nc1` [Example 346, N-{[1,6-diethyl-4-(tetrahydro-2H-pyran-4-ylamino)-1H-pyrazolo[3,4-b]pyridin-5-yl]methyl}-2-(1-methylethyl)-5-pyrimidinecarboxamide], the IC50 was 126 to 1000 pM. The result for `CCc1nc2c(cnn2CC)c(NC2CCOCC2)c1CNC(=O)c1cnco1` [Example 239, N-{[1,6-diethyl-4-(tetrahydro-2H-pyran-4-ylamino)-1H-pyrazolo[3,4-b]pyridin-5-yl]methyl}-1,3-oxazole-5-carboxamide] reads 126 to 1000 pM; that for `CCOc1ccccc1C(=O)NCc1c(C)nc2c(cnn2CC)c1NC1CCOCC1` [Example 219, N-{[1-ethyl-6-methyl-4-(tetrahydro-2H-pyran-4-ylamino)-1H-pyrazolo[3,4-b]pyridin-5-yl]methyl}-2-(ethyloxy)benzamide], 126 to 1000 pM. As for `CCc1nc2c(cnn2CC)c(NC2CCOCC2)c1CNC(=O)N1CCCCC1` [Example 290, N-{[1,6-diethyl-4-(tetrahydro-2H-pyran-4-ylamino)-1H-pyrazolo[3,4-b]pyridin-5-yl]methyl}-1-piperidinecarboxamide], the IC50 is 126 to 1000 pM.

On to `CCc1nc2c(cnn2CC)c(NC2CCOCC2)c1CNC(=O)c1ccc(N2CCCC2=O)cc1` [Example 178, N-{[1,6-diethyl-4-(tetrahydro-2H-pyran-4-ylamino)-1H-pyrazolo[3,4-b]pyridin-5-yl]methyl}-4-(2-oxo-1-pyrrolidinyl)benzamide], for which the IC50 is 10 to 100 pM.

On to `CCc1nc2c(cnn2CC)c(NC2CCOCC2)c1CNC(=O)c1csc(C(F)(F)F)n1` [Example 339, N-{[1,6-diethyl-4-(tetrahydro-2H-pyran-4-ylamino)-1H-pyrazolo[3,4-b]pyridin-5-yl]methyl}-2-(trifluoromethyl)-1,3-thiazole-4-carboxamide], for which the IC50 is 10 to 100 pM.

In the case of `CCn1ncc2c(NC3CCN(C(N)=O)CC3)c(CNC(=O)c3ccc(C(C)C)cc3)c(C)nc21` [Example 263, 4-({1-ethyl-6-methyl-5-[({[4-(1-methylethyl)phenyl]carbonyl}amino)methyl]-1H-pyrazolo[3,4-b]pyridin-4-yl}amino)-1-piperidinecarboxamide], the IC50 was 10 to 100 pM.

Regarding `CCn1ncc2c(NC3CCN(C(N)=O)CC3)c(CNC(=O)c3ccc(C)c4c3OCC4)c(C)nc21` [Example 274, 4-{[1-ethyl-6-methyl-5-({[(4-methyl-2,3-dihydro-1-benzofuran-7-yl)carbonyl]amino}methyl)-1H-pyrazolo[3,4-b]pyridin-4-yl]amino}-1-piperidinecarboxamide], the IC50 was 10 to 100 pM. The result for `CCn1ncc2c(NC3CCN(C(N)=O)CC3)c(CNC(=O)c3ccc(C(C)(C)C)cc3O)c(C)nc21` [Example 272, 4-({5-[({(4-(1,1-dimethylethyl)-2-hydroxyphenyl]carbonyl}amino)methyl}-1-ethyl-6-methyl-1H-pyrazolo[3,4-b]pyridin-4-yl)amino}-1-piperidinecarboxamide] reads 10 to 100 pM; that for `CCn1ncc2c(NC3CCOCC3)c(CNC(=O)c3ccc4c(c3)CCC4)c(C)nc21` [Example 284, N-{[1-ethyl-6-methyl-4-(tetrahydro-2H-pyran-4-ylamino)-1H-pyrazolo[3,4-b]pyridin-5-yl]methyl}-2,3-dihydro-1H-indene-5-carboxamide], 126 to 1000 pM. The result for `CCc1nc2c(cnn2CC)c(NC2CCOCC2)c1CNC(=O)c1nc(C)oc1C(F)(F)F` [Example 155, N-{[1,6-diethyl-4-(tetrahydro-2H-pyran-4-ylamino)-1H-pyrazolo[3,4-b]pyridin-5-yl]methyl}-2-methyl-5-(trifluoromethyl)-1,3-oxazole-4-carboxamide] reads 126 to 1000 pM. The figure for `CCn1ncc2c(NC3CCOCC3)c(CNC(=O)c3cnc(C(C)(C)C)nc3)c(C)nc21` [Example 336, 2-(1,1-dimethylethyl)-N-{[1-ethyl-6-methyl-4-(tetrahydro-2H-pyran-4-ylamino)-1H-pyrazolo[3,4-b]pyridin-5-yl]methyl}-5-pyrimidinecarboxamide] is 126 to 1000 pM. On to `CCn1ncc2c(NC3CCN(C(N)=O)CC3)c(CNC(=O)c3ccc4c(c3)CCC4)c(C)nc21` [Example 271, 4-[(5-{[(2,3-dihydro-1H-inden-5-ylcarbonyl)amino]methyl}-1-ethyl-6-methyl-1H-pyrazolo[3,4-b]pyridin-4-yl)amino]-1-piperidinecarboxamide], for which the IC50 is 10 to 100 pM. For `CCc1nc2c(cnn2CC)c(NC2CCOCC2)c1CN1Cc2occc2C1=O` [Example 198, 5-{[1,6-diethyl-4-(tetrahydro-2H-pyran-4-ylamino)-1H-pyrazolo[3,4-b]pyridin-5-yl]methyl}-5,6-dihydro-4H-furo[2,3-c]pyrrol-4-one], the IC50 was 126 to 1000 pM.

As to `CCc1nc2c(cnn2CC)c(NC2CCN(C(N)=O)CC2)c1CNC(=O)c1cccc2c1OCC2` [Example 205, 4-[(5-{[(2,3-dihydro-1-benzofuran-7-ylcarbonyl)amino]methyl}-1,6-diethyl-1H-pyrazolo[3,4-b]pyridin-4-yl)amino]-1-piperidinecarboxamide], the IC50 is 10 to 100 pM.

For the compound `CCc1nc2c(cnn2CC)c(NC2CCOCC2)c1CNC(=O)c1cc(C)on1` [Example 233, N-{[1,6-diethyl-4-(tetrahydro-2H-pyran-4-ylamino)-1H-pyrazolo[3,4-b]pyridin-5-yl]methyl}-5-methyl-3-isoxazolecarboxamide], the IC50 was 10 to 100 pM.
